Key:
[1] = in vitro; details: human
[2] = animal or person; details: Mus musculus, NMRI, po, read-out: INH
[3] = Apparent permeability of compound across apical to basal side in vinblastine treated human Caco-2 cells at 1 to 10 uM incubated for 15 to 60 mins by HPLC analysis
[4] = target: Voltage-gated inwardly rectifying potassium channel KCNH2 (Homo sapiens, UniProt Q12809)
Description: Inhibition of hERG expressed in CHO cells at -80 mV holding potential incubated for 7 to 10 mins by automated patch clamp method

[5] = in vitro; details: Wistar, rat, microsomes
[6] = in vitro; details: NMRI, mouse, microsomes
[7] = animal or person; details: Mus musculus, NMRI, po, read-out: INH; remark: listed apart in the source
[8] = Efflux ratio of apparent permeability across basolateral to apical side over apical to basolateral side in vinblastine treated human Caco-2 cells at 1 to 10 uM incubated for 15 to 60 hrs by HPLC analysis
[9] = target: T1, Vasopressin V1a receptor (Homo sapiens, UniProt P37288)
T1 sequence (P37288 whole entry): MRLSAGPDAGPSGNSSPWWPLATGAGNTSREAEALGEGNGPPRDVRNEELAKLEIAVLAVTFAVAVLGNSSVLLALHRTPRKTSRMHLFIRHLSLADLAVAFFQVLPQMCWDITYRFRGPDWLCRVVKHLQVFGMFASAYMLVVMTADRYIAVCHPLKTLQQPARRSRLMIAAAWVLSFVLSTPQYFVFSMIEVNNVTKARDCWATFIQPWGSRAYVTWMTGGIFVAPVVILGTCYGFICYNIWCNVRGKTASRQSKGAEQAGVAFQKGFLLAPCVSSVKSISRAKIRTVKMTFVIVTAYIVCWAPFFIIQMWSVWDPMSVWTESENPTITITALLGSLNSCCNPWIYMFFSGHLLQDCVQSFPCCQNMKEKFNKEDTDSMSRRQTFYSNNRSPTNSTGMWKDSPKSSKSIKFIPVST
Description: Displacement of [3H]vasopressin from human V1A receptor assessed as inhibition constant by Cheng-Prusoff equation analysis

[10] = target: T1, Vasopressin V1a receptor; remark: listed apart in the source
Description: Antagonist activity at human V1A receptor expressed in human 1321N1 cells assessed as Ca2+ mobilization incubated for 15 mins by FLIPR calcium 5 assay

Chain of Voltage-gated inwardly rectifying potassium channel KCNH2 (Q12809 whole entry): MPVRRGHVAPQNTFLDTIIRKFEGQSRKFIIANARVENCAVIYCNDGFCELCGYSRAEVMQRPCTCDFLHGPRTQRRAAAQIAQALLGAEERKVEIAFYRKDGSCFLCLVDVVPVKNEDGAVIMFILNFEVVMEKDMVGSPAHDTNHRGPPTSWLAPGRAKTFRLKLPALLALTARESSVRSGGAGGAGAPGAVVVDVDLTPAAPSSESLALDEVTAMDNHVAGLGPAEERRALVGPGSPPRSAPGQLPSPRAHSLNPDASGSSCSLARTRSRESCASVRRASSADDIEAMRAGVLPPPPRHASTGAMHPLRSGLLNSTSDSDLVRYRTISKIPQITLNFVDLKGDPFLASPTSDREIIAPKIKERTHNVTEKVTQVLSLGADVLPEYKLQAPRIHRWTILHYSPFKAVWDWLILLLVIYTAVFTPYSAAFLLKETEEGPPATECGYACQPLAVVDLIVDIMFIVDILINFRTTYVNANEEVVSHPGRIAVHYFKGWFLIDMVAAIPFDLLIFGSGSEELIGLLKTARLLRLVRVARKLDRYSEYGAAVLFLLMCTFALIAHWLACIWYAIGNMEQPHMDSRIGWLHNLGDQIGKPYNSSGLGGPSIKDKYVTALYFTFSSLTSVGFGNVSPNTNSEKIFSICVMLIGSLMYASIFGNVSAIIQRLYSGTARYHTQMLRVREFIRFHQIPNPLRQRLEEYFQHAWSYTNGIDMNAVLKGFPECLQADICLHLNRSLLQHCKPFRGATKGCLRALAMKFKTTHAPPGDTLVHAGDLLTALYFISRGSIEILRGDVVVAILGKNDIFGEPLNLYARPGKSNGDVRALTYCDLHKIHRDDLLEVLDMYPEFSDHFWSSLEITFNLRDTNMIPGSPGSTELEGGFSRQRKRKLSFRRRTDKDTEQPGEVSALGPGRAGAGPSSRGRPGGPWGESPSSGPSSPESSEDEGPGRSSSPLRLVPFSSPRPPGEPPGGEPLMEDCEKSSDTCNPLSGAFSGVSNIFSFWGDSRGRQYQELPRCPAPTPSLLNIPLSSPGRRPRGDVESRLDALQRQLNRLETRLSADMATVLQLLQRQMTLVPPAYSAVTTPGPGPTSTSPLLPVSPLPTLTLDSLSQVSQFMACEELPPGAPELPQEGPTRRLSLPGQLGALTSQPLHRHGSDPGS

Row | Papp A→B at 10 µM [3] [×10⁻⁶ cm/s] | microsomal CLint at 1 µM [5] [µL/min/mg] | microsomal CLint at 1 µM [6] [µL/min/mg] | efflux ratio at 10 µM [8] | microsomal CLint at 1 µM ([1]; microsomes) [µL/min/mg] | Structure (SMILES) | also measured
1 |  |  |  |  |  | Clc1ccc2c(c1)CCCc1nnc([C@H]3CC[C@H](Oc4ccccn4)CC3)n1-2 | microsomal CLint at 1 µM ([1]; liver microsomes): 29 µL/min/mg; inhibition in vivo at 10 mg/kg [2]: 42%
2 | 20 | 18 | 7 |  |  | O[C@H]1Cc2cc(Cl)ccc2-n2c(nnc2[C@H]2CC[C@H](Oc3ccccn3)CC2)C1 | IC50 [4]: > 30000 nM; inhibition in vivo at 10 mg/kg [2]: 92%; inhibition in vivo at 3 mg/kg [7]: 84%
3 | 1.3 | 3 | 3 | 29 |  | O=C([C@H]1CC[C@H](c2nnc3n2-c2ccc(Cl)cc2CC2(C3)OCCO2)CC1)N1CCOCC1 | 
4 | 7 | 15 | 27 | 0.8 |  | Clc1ccc2c(c1)CC1(Cc3nnc([C@H]4CC[C@H](Oc5ccccn5)CC4)n3-2)OCCCO1 | inhibition in vivo at 10 mg/kg [2]: 79%; inhibition in vivo at 3 mg/kg [7]: 69%
5 |  |  |  |  |  | CC(C)NC1Cc2cc(Br)ccc2-n2c(nnc2[C@H]2CC[C@H](Oc3ccccn3)CC2)C1 (some centres not stated) | inhibition in vivo at 3 mg/kg [7]: 64%
6 | 2.8 | 7 | 9 | 35 | 5 | N[C@@H]1Cc2cc(Cl)ccc2-n2c(nnc2[C@H]2CC[C@H](Oc3ccccn3)CC2)C1 | IC50 [4]: 16700 nM
7 | 8.6 | 3 | 6 | 7.5 | 11 | CN1CCN(CC2Cc3cc(Cl)ccc3-n3c(nnc3[C@H]3CC[C@H](Oc4ccccn4)CC3)C2)CC1 (some centres not stated) | Ki [9]: 0.8 nM; IC50 [10]: 7.1 nM
8 |  |  |  |  |  | c1ccc(O[C@H]2CC[C@H](c3nnc4n3-c3ccccc3CC3(C4)OCCO3)CC2)nc1 | inhibition in vivo at 10 mg/kg [2]: 49%
9 |  |  |  |  |  | FC[C@H]1Cc2cc(Cl)ccc2-n2c(nnc2[C@H]2CC[C@H](Oc3ccccn3)CC2)C1 | IC50 [4]: 13000 nM
10 |  |  |  |  |  | CC(C)N[C@H]1Cc2cc(Cl)ccc2-n2c(nnc2[C@H]2CC[C@H](Oc3ccccn3)CC2)C1 | IC50 [4]: 3800 nM
11 |  |  |  |  |  | Fc1ccc2c(c1)CC1(Cc3nnc([C@H]4CC[C@H](Oc5ccccn5)CC4)n3-2)OCCO1 | inhibition in vivo at 10 mg/kg [2]: 49%
12 | 2.6 | 36 | 11 | 44 | 4 | N[C@H]1Cc2cc(Cl)ccc2-n2c(nnc2[C@H]2CC[C@H](Oc3ccccn3)CC2)C1 | 
13 |  | 47 | 39 |  | 42 | CN(C)CC1Cc2cc(Cl)ccc2-n2c(nnc2[C@H]2CC[C@H](Oc3ccccn3)CC2)C1 (some centres not stated) | Ki [9]: 0.5 nM; IC50 [10]: 4.7 nM
14 |  |  |  |  |  | N#Cc1ccc2c(c1)CC1(Cc3nnc([C@H]4CC[C@H](Oc5ccccn5)CC4)n3-2)OCCO1 | inhibition in vivo at 10 mg/kg [2]: 69%
15 | 24 | 15 | 16 | 1.4 | 21 | CCN[C@@H]1Cc2cc(Cl)ccc2-n2c(nnc2[C@H]2CC[C@H](Oc3ccccn3)CC2)C1 | IC50 [4]: 3500 nM
16 |  |  |  |  |  | NC1CCc2cc(Cl)ccc2-n2c1nnc2[C@H]1CC[C@H](Oc2ccccn2)CC1 (some centres not stated) | Ki [9]: 8 nM; IC50 [10]: 42 nM
17 |  | 145 | 101 |  | 134 | Clc1ccc2c(c1)CC(CN1CCOCC1)Cc1nnc([C@H]3CC[C@H](Oc4ccccn4)CC3)n1-2 (some centres not stated) | Ki [9]: 0.4 nM; IC50 [10]: 2.1 nM
18 |  |  |  |  |  | OC[C@@H]1Cc2cc(Cl)ccc2-n2c(nnc2[C@H]2CC[C@H](Oc3ccccn3)CC2)C1 | IC50 [4]: 19000 nM
19 |  |  |  |  |  | OC[C@H]1Cc2cc(Cl)ccc2-n2c(nnc2[C@H]2CC[C@H](Oc3ccccn3)CC2)C1 | IC50 [4]: 23000 nM

Row | Papp A→B at 10 µM [3] [×10⁻⁶ cm/s] | microsomal CLint at 1 µM [5] [µL/min/mg] | microsomal CLint at 1 µM [6] [µL/min/mg] | efflux ratio at 10 µM [8] | microsomal CLint at 1 µM ([1]; microsomes) [µL/min/mg] | Structure (SMILES) | also measured
20 |  |  |  |  |  | OCC1Cc2cc(Cl)ccc2-n2c(nnc2[C@H]2CC[C@H](Oc3ccccn3)CC2)C1 (some centres not stated) | IC50 [4]: 21400 nM
21 |  |  |  |  |  | FC[C@@H]1Cc2cc(Cl)ccc2-n2c(nnc2[C@H]2CC[C@H](Oc3ccccn3)CC2)C1 | IC50 [4]: 12000 nM
22 |  | 26 | 37 |  | 26 | FC1(F)CCC(NC2Cc3cc(Cl)ccc3-n3c(nnc3[C@H]3CC[C@H](Oc4ccccn4)CC3)C2)CC1 (some centres not stated) | 
23 | 9.3 |  |  | 6.8 |  | CNC1CCc2nnc([C@H]3CC[C@H](Oc4ccccn4)CC3)n2-c2ccc(Cl)cc21 (some centres not stated) | Ki [9]: 1.3 nM; IC50 [10]: 6.9 nM
24 |  |  |  |  |  | CC(C)N[C@@H]1Cc2cc(Cl)ccc2-n2c(nnc2[C@H]2CC[C@H](Oc3ccccn3)CC2)C1 | IC50 [4]: 4000 nM
25 |  |  |  |  |  | Brc1ccc2c(c1)CC1(Cc3nnc([C@H]4CC[C@H](Oc5ccccn5)CC4)n3-2)OCCO1 | inhibition in vivo at 10 mg/kg [2]: 99%
26 |  |  |  |  |  | FC(F)(F)c1ccc2c(c1)CC1(Cc3nnc([C@H]4CC[C@H](Oc5ccccn5)CC4)n3-2)OCCO1 | inhibition in vivo at 10 mg/kg [2]: 76%
27 |  | 25 | 35 |  | 48 | NCC1Cc2cc(Cl)ccc2-n2c(nnc2[C@H]2CC[C@H](Oc3ccccn3)CC2)C1 (some centres not stated) | Ki [9]: 3.1 nM; IC50 [10]: 15 nM
28 | 24 | 17 | 14 | 4.4 | 16 | Clc1ccc2c(c1)CC(NC1COC1)Cc1nnc([C@H]3CC[C@H](Oc4ccccn4)CC3)n1-2 (some centres not stated) | 
29 |  |  |  |  |  | CC(C)NC1Cc2cc(C#N)ccc2-n2c(nnc2[C@H]2CC[C@H](Oc3ccccn3)CC2)C1 (some centres not stated) | inhibition in vivo at 3 mg/kg [7]: 56%
30 | 40 | 19 | 24 | 1.8 | 12 | CNC1Cc2cc(Cl)ccc2-n2c(nnc2[C@H]2CC[C@H](Oc3ccccn3)CC2)C1 (some centres not stated) | 
31 |  | 6 | 8 |  | 20 | CC(C)NCC1Cc2cc(Cl)ccc2-n2c(nnc2[C@H]2CC[C@H](Oc3ccccn3)CC2)C1 (some centres not stated) | Ki [9]: 2.8 nM; IC50 [10]: 55 nM
32 | 8.1 | 8 | 6 | 7.1 | 14 | Clc1ccc2c(c1)CC(CNC1CCOCC1)Cc1nnc([C@H]3CC[C@H](Oc4ccccn4)CC3)n1-2 (some centres not stated) | Ki [9]: 2.3 nM; IC50 [10]: 15 nM
33 | 23 | 36 | 37 | 1.3 | 34 | CN(C)C1Cc2cc(Cl)ccc2-n2c(nnc2[C@H]2CC[C@H](Oc3ccccn3)CC2)C1 (some centres not stated) | 
34 | 41 | 9 | 15 | 1.1 | 24 | Clc1ccc2c(c1)CC(NC1CCOCC1)Cc1nnc([C@H]3CC[C@H](Oc4ccccn4)CC3)n1-2 (some centres not stated) | 
35 |  |  |  |  |  | CC(C)NC1Cc2cc(F)ccc2-n2c(nnc2[C@H]2CC[C@H](Oc3ccccn3)CC2)C1 (some centres not stated) | inhibition in vivo at 3 mg/kg [7]: 58%
36 |  | 6 | 2 |  | 0.2 | CN(C)CC(=O)NC1Cc2cc(Cl)ccc2-n2c(nnc2[C@H]2CC[C@H](Oc3ccccn3)CC2)C1 (mixture of isomers) | 
37 | 3 | 11 | 14 | 29 | 2 | NC1Cc2cc(Cl)ccc2-n2c(nnc2[C@H]2CC[C@H](Oc3ccccn3)CC2)C1 (mixture of isomers) | 
38 |  |  |  |  |  | CC(C)NC1Cc2cc(Cl)ccc2-n2c(nnc2[C@H]2CC[C@H](Oc3ccccn3)CC2)C1 (mixture of isomers) | IC50 [4]: 3700 nM

From ChEMBL document CHEMBL5532679, “Discovery and Characterization of RGH-122, a Potent, Selective, and Orally Bioavailable V1a Receptor Antagonist” (J Med Chem, 2024)
